From patent US9469650B2, “Melampomagnolide B derivatives” (BOARD OF TRUSTEES OF THE UNIVERSITY OF ARKANSAS, priority 2013, dated 2016)

Key:
CCRF-CEM = assay: panel of 60 human tumor cell lines, growth inhibition (Leukemia)
MOLT-4 = assay: as above
LOX IMVI = assay: panel of 60 human tumor cell lines, growth inhibition (Melanoma)
SK-MEL-2 = assay: as above
SK-MEL-5 = assay: as above; details: for Percent Growth: 8K-MEL-5
HCC-2998 = assay: panel of 60 human tumor cell lines, growth inhibition (Colon Cancer); details: for Percent Growth: HCC-2998
HCT-15 = assay: as above
CAKI-1 = assay: panel of 60 human tumor cell lines, growth inhibition (Renal Cancer)
RXF 393 = assay: as above; details: for GI50: RXF 393, RXF 393; for Percent Growth: RXF 393

Compound: C=C1C(=O)O[C@H]2[C@H]1CC/C(COC(=O)NCCc1ccccn1)=C\CC[C@@]1(C)O[C@@H]21 [JVM 61, ((1aR,7aS,10aS,10bS,E)-1a-methyl-8-methylene-9-oxo-1a,2,3,6,7,7a,8,9,10a,10b-decahydrooxireno[2′,3′:9,10]cyclodeca[1,2-b]furan-5-yl)methyl-(2-(pyridin-2-yl)ethyl)carbamate]
- GI50 (CCRF-CEM; Homo sapiens): 2.65 µM
- GI50 (CCRF-CEM; Homo sapiens, 5-dose assay): 2.65 µM
- CC50 (CCRF-CEM; Homo sapiens, read-out: LC50): > 100 µM
- IC (TGI) (CCRF-CEM; Homo sapiens, read-out: TGI): 8.59 µM
- Percent Growth (CCRF-CEM; Log10 Concentration −4.0): −39%
- Percent Growth (CCRF-CEM; Log10 Concentration −5.0): −6%
- Percent Growth (CCRF-CEM; Log10 Concentration −6.0): 91%
- Percent Growth (CCRF-CEM; Log10 Concentration −7.0): 100%
- Percent Growth (CCRF-CEM; Log10 Concentration −8.0): 104%
- GI50 (MOLT-4; Homo sapiens, MOLT-4): 5.54 µM
- CC50 (MOLT-4; Homo sapiens, MOLT-4, read-out: LC50): > 100 µM
- IC (TGI) (MOLT-4; Homo sapiens, MOLT-4, read-out: TGI): 25 µM
- Percent Growth (MOLT-4; MOLT-4, Log10 Concentration −4.0): −47%
- Percent Growth (MOLT-4; MOLT-4, Log10 Concentration −5.0): 31%
- Percent Growth (MOLT-4; MOLT-4, Log10 Concentration −6.0): 105%
- Percent Growth (MOLT-4; MOLT-4, Log10 Concentration −7.0): 106%
- Percent Growth (MOLT-4; MOLT-4, Log10 Concentration −8.0): 106%
- GI50 (LOX IMVI; Homo sapiens): 4.96 µM
- GI50 (LOX IMVI; Homo sapiens, 5-dose assay): 4.96 µM
- CC50 (LOX IMVI; Homo sapiens, read-out: LC50): 58.2 µM
- IC (TGI) (LOX IMVI; Homo sapiens, read-out: TGI): 19.4 µM
- Percent Growth (LOX IMVI; Log10 Concentration −4.0): −75%
- Percent Growth (LOX IMVI; Log10 Concentration −5.0): 30%
- Percent Growth (LOX IMVI; Log10 Concentration −6.0): 96%
- Percent Growth (LOX IMVI; Log10 Concentration −7.0): 102%
- Percent Growth (LOX IMVI; Log10 Concentration −8.0): 99%
- GI50 (SK-MEL-2; Homo sapiens, SK-MEL-2): 15.1 µM
- CC50 (SK-MEL-2; Homo sapiens, SK-MEL-2, read-out: LC50): 69 µM
- IC (TGI) (SK-MEL-2; Homo sapiens, SK-MEL-2, read-out: TGI): 32.3 µM
- Percent Growth (SK-MEL-2; SK-MEL-2, Log10 Concentration −4.0): −74%
- Percent Growth (SK-MEL-2; SK-MEL-2, Log10 Concentration −5.0): 77%
- Percent Growth (SK-MEL-2; SK-MEL-2, Log10 Concentration −6.0): 112%
- Percent Growth (SK-MEL-2; SK-MEL-2, Log10 Concentration −7.0): 110%
- Percent Growth (SK-MEL-2; SK-MEL-2, Log10 Concentration −8.0): 109%
- Percent Growth (SK-MEL-5; Log10 Concentration −4.0): −94%
- Percent Growth (SK-MEL-5; Log10 Concentration −5.0): 50%
- Percent Growth (SK-MEL-5; Log10 Concentration −6.0): 96%
- Percent Growth (SK-MEL-5; Log10 Concentration −7.0): 95%
- Percent Growth (SK-MEL-5; Log10 Concentration −8.0): 96%
- GI50 (SK-MEL-5; Homo sapiens, SK-MEL-5): 9.78 µM
- CC50 (SK-MEL-5; Homo sapiens, SK-MEL-5, read-out: LC50): 49.1 µM
- IC (TGI) (SK-MEL-5; Homo sapiens, SK-MEL-5, read-out: TGI): 22.1 µM
- Percent Growth (HCC-2998; Log10 Concentration −4.0): −86%
- Percent Growth (HCC-2998; Log10 Concentration −5.0): 87%
- Percent Growth (HCC-2998; Log10 Concentration −6.0): 100%
- Percent Growth (HCC-2998; Log10 Concentration −7.0): 103%
- Percent Growth (HCC-2998; Log10 Concentration −8.0): 101%
- GI50 (HCC-2998; Homo sapiens, HCC 2998): 16.3 µM
- CC50 (HCC-2998; Homo sapiens, HCC 2998, read-out: LC50): 62.1 µM
- IC (TGI) (HCC-2998; Homo sapiens, HCC 2998, read-out: TGI): 31.8 µM
- Percent Growth (HCT-15; HCT-15, Log10 Concentration −4.0): −81%
- Percent Growth (HCT-15; HCT-15, Log10 Concentration −5.0): 22%
- Percent Growth (HCT-15; HCT-15, Log10 Concentration −6.0): 89%
- Percent Growth (HCT-15; HCT-15, Log10 Concentration −7.0): 97%
- Percent Growth (HCT-15; HCT-15, Log10 Concentration −8.0): 98%
- GI50 (HCT-15; Homo sapiens, HCT-15): 3.5 µM
- CC50 (HCT-15; Homo sapiens, HCT-15, read-out: LC50): 50.1 µM
- IC (TGI) (HCT-15; Homo sapiens, HCT-15, read-out: TGI): 15.4 µM
- Percent Growth (CAKI-1; CAKI-1, Log10 Concentration −4.0): −83%
- Percent Growth (CAKI-1; CAKI-1, Log10 Concentration −5.0): 6%
- Percent Growth (CAKI-1; CAKI-1, Log10 Concentration −6.0): 88%
- Percent Growth (CAKI-1; CAKI-1, Log10 Concentration −7.0): 93%
- Percent Growth (CAKI-1; CAKI-1, Log10 Concentration −8.0): 99%
- GI50 (CAKI-1; Homo sapiens, CAKI-1): 2.88 µM
- CC50 (CAKI-1; Homo sapiens, CAKI-1, read-out: LC50): 42.8 µM
- IC (TGI) (CAKI-1; Homo sapiens, CAKI-1, read-out: TGI): 11.7 µM
- GI50 (RXF 393; Homo sapiens): 2.22 µM
- GI50 (RXF 393; Homo sapiens, 5-dose assay): 2.22 µM
- CC50 (RXF 393; Homo sapiens, RXF 393, read-out: LC50): 45 µM
- IC (TGI) (RXF 393; Homo sapiens, RXF 393, read-out: TGI): 15.5 µM
- Percent Growth (RXF 393; Log10 Concentration −4.0): −77%
- Percent Growth (RXF 393; Log10 Concentration −5.0): 2%
- Percent Growth (RXF 393; Log10 Concentration −6.0): 76%
